# Experimental data as given in US20250268748A1, “TREATMENT OF SPINAL MUSCULAR ATROPHY BY INDUCING HEAT SHOCK RESPONSE” (THE RESEARCH INSTITUTE AT NATIONWIDE CHILDREN'S HOSPITAL, priority 2016, published 2025).
# Columns and labels:
# [1] = test system: SMN2 full length splicing in MCF-7 cells; experiment: 17-DMAG HSP90 inhibition, RT-PCR of SMN exon 7 splicing with or without heat shock; assay type: cell-based; settings: for SMN2 full length splicing: 8 hours
# Description: FIG. 7 provide an image and a graph showing that HSP90 inhibition prevents heat-induced SMN splicing correction. HSP90 inhibition was performed with 17-DMAG in MCF-7 cells. Dose responses were analyzed at 0, 10, 20, 40 nM 17-DMAG for 8 hours, with or without 41° C. heat treatment. Total RN A was harvested and RT-PCR amplification of SMN transcripts was used to observe splicing levels of exon 7. Significance levels are: * p-value<0.05, **p-value <0.01.
# To validate the role of HSP90 in the SMN2 splicing under heat shock, the HSP90 ATPase inhibitor, 17-DMAG was administered to MCF-7 cells. 17-DMAG was administered at 0, 10 nM, 20 nM, and 40 nM concentrations the same time as the heat shock treatment, for the duration of 8 hours. Experiments were performed in parallel at 37° C. and 41° C. […] (FIG. 7). […] Full length SMN2 is quantitated for all samples and three trials are graphed, showing significant alterations in SMN splicing.
# 17-DMAG (17-Dimethylaminoethylamino-17-demethoxygeldanamycin) was purchased from Cayman Chemicals and resuspended in DMSO to a 20 mM stock. Then treatments were administered to cultured cells at a density of 75% in 6 well plates.
# Cells grown under normal conditions (37° C.) were grown in a 5% C02, humidified incubator. Cells grown under heat shock conditions (38°-41° C.) were cultured at 5% C02, humidified incubators set to respective temperatures and monitored for temperature fluctuations with calibrated digital thermometer. Cells were maintained at their temperature treatment for the duration of the time point and harvested for RNA or protein directly following treatment.
# Total RNA was isolated from samples using RNeasy kits (Qiagen). cDNA was created from RNA with Roche Transcriptor Reverse Transcriptase. cDNA was created from 1.5 ug of total RNA using random hexamers (Roche). PCR was performed with Sigma Taq Polymerase to detect exon 7 splicing of SMN1 and SMN2 transcripts. Primers were designed to flank exon 7 to visualize both full length and exon-skipped products: forward primer in exon 6 and reverse primer in exon 8. PCR cycles were performed with the following conditions: annealing temperature 62° C., 30 sec; 72° C. extension, 1 min; for 35 cycles. Importantly, there exists a unique digestion site (Ddel) within this PCR amplicon in exon 8 of SMN2. Therefore, to distinguish between SMN1 and SMN2transcripts, PCR products were digested with the enzyme Ddel. Subsequent digested PCR products were then resolved on 2.5% agarose gels (product sizes: SMN1 full-length: 507 bp, SMN1A7: 453 bp, SMN2 full-length: 392 bp, SMN2M: 338 bp). Splicing ratios were determined by densitometry (ImageQuant software, GE Healthcare Life Sciences) and statistical analysis (two tailed t test) performed using Graphpad Prism software.
# [2] = test system: SMN2 exon 7 inclusion in differentiated SH-SY5Y cells; experiment: Oxidative stress treatment, RT-PCR of SMN2 splicing; assay type: cell-based; settings: 20 μM for 24 hours (oxidative stress)
# Description: FIGS. 2A-2C provide graphs and images showing that heat shock increases the functional splicing product of SMN2 in a dose and time-dependent manner. A. Neuroblastoma cell line, SHSY-5Y, were differentiated for 7-9 days in 5 μM retinoic acid and then treated with various stresses to characterize the level of SMN2 as a stress-responsive gene. RNA splicing levels of SMN1 and 2 were observed by performing RTPCR analysis on total mRNA harvested from cell lysates. […] B. To test the cell-type specificity of the heat shock effect on SMN splicing, we performed a heat shock treatment on several cell lines. All treatments were performed with 24 hours of 41° C. and compared with NT (37° C.) quantitation is shown (n-3). This treatment was performed in Differentiated SHSY-5Y cells, SMA patient fibroblasts (GM03813), SMA carrier fibroblasts (GM03814), and a breast cancer cell line (MCF-7) cells. Heat treatment induces a significant change in splicing in all cell lines tested. C. To test the duration of heat treatment necessary for heat shock induced splicing correction a time course was performed. Differentiated SHSY-5Y cells were treated with 41° C. for 1, 4, 8, and 24 hour time intervals. D. To test the quantity of heat required to elicit splicing correction, a heat treatment dose response was performed. Differentiated SHSY-5Y cells were treated with temperatures from 37° to 41° C. for 8 hours. […]
Compound,"SMN2 full length splicing ([1]; 10 nM, 37° C.)","SMN2 full length splicing ([1]; 10 nM, 41° C.)","SMN2 full length splicing ([1]; 20 nM, 37° C.)","SMN2 full length splicing ([1]; 20 nM, 41° C.)","SMN2 full length splicing ([1]; 40 nM, 37° C.)","SMN2 full length splicing ([1]; 40 nM, 41° C.)",heat shock-induced full length SMN2 splicing (summary statement) ([1]; heat shock),SMN2 exon 7 inclusion [2]
"CO[C@H]1/C=C\C=C(/C)C(=O)NC2=CC(=O)C(NCCN(C)C)=C(C[C@@H](C)C[C@H](OC)[C@H](O)[C@@H](C)/C=C(\C)[C@@H]1OC(N)=O)C2=O [17-DMAG, 17-Dimethylaminoethylamino-17-demethoxygeldanamycin]",significant decrease,significantly decreased the full length splicing to even below baseline splicing at 37 °C,began to approach basal splicing levels,significantly decreased the full length splicing to even below baseline splicing at 37 °C,began to approach basal splicing levels,significantly decreased the full length splicing to even below baseline splicing at 37 °C,prevents,–
OO [HO2],–,–,–,–,–,–,–,mild decreases in exon 7 inclusion
